# Experiments:
# other hormone receptors = settings: cited from earlier work
# CLEC10A = assay: Whole blood CLEC10A RNA after prednisone in healthy volunteers (NCT03335956); format: in vivo, human
# Method: This was a Phase 1 single-ascending dose (SAD) and multiple-ascending dose (MAD) study to assess the safety and pharmacological activity of exicorilant. Co-dosing of exicorilant with prednisone 25 mg, and comparison to the effects of prednisone alone, established the pharmacological activity of exicorilant. Only the specimens collected after dosing with prednisone alone were analyzed for the studies described below. Blood was collected in the morning prior to dosing in PAXgene RNA tubes. 4 hours after a dose of prednisone 25 mg, blood was drawn again. […] (Nanostring Technologies, Seattle WA, USA).
# [1] = test system: GR target genes in whole blood; assay: Whole blood RNA fold change (NanoString 444-gene panel), randomized phase 2 ovarian cancer study NCT03776812; format: in vivo, human; settings: ovarian phase 2 study, summary statement
# Method: This phase 2, open-label, randomized, 3-arm study was performed in accordance with the principles of the Declaration of Helsinki, the Good Clinical Practice guidelines of the International Council on Harmonisation, and local regulatory requirements. The protocol was approved by the institutional review board or independent ethics committee at each investigative site. All patients or their legally authorized representatives provided written informed consent. […] Blood (2.5 mL) was drawn into a […] blood RNA tube (Qiagen) using a butterfly needle. The tube was sealed and gently inverted 10 times. The tube was frozen in dry ice and stored at -80° C. until RNA extraction. […] (Nanostring Technologies, Seattle WA, USA). […] For baseline only analyses, gene abundance is reported as normalized counts. Data were analyzed and adjusted P-values (with Benjamini-Yekutieli false discovery rate corrections) were determined in nSolver 4.0 (NanoString Technologies, Seattle, WA). Cross validated random forest techniques were used to derive a gene signature that could distinguish the relacorilant+nab-paclitaxel group from nab-paclitaxel alone ([…], Poland, Study WO5).
Structure (SMILES),affinity for other hormone receptors (other hormone receptors),"CLEC10A fold change (CLEC10A; 4 hours after prednisone 25 mg, adj P=6.4×10^−8)",CLEC10A expression in whole blood (CLEC10A; prednisone 25 mg),CLEC10A expression in whole blood [1]
"Cn1ncc(S(=O)(=O)N2CC[C@H]3Cc4c(cnn4-c4ccc(F)cc4)C[C@]3(C(=O)c3cc(C(F)(F)F)ccn3)C2)n1 [exicorilant, ((4aR,8aS)-1-(4-fluorophenyl)-6-((2-methyl-2H-1,2,3-triazol-4-yl)sulfonyl)-4,4a,5,6,7,8,8a,9-octahydro-1H-pyrazolo[3,4-g]isoquinolin-4a-yl)(4-(trifluoromethyl)pyridin-2-yl)methanone]",no affinity,–,–,–
C[C@]12C=CC(=O)C=C1CC[C@@H]1[C@@H]2C(=O)C[C@@]2(C)[C@H]1CC[C@]2(O)C(=O)CO [prednisone],–,0.37,suppressed,–
"Cn1cc(S(=O)(=O)N2CCC3=Cc4c(cnn4-c4ccc(F)cc4)C[C@]3(C(=O)c3cc(C(F)(F)F)ccn3)C2)cn1 [relacorilant, (R)-(1-(4-fluorophenyl)-6-((1-methyl-1H-pyrazol-4-yl)sulfonyl)-4,4a,5,6,7,8-hexahydro-1H-pyrazolo[3,4-g]isoquinolin-4a-yl)(4-(trifluoromethyl)pyridin-2-yl)methanone]",no affinity,–,–,induced

# — US20240091385A1, “METHODS OF ASSESSING SELECTIVE GLUCOCORTICOID RECEPTOR MODULATION AND OF IDENTIFYING AND TREATING PATIENTS LIKELY TO BENEFIT FROM GLUCOCORTICOID RECEPTOR MODULATION” (Corcept Therapeutics Incorporated, priority 2022, published 2024)
